# In PMC3284447, “In vivo antinociception of potent mu opioid agonist tetrapeptide analogues and comparison with a compact opioid agonist - neurokinin 1 receptor antagonist chimera” (Molecular Brain, 2012):
# “Also recorded” adds a separate entry of the source. Read-outs that look alike come from different tables or passages of the source.
# What was measured:
# DOR [1] = test: MVD (mouse vas deferens) tissue bioassay, DOR-representative; settings: SBCHM01 compared to AN81, MVD EC50
# Excerpt: Aba: 4-amino-1,2,4,5-tetrahydro-2-benzazepin-3-on; BBB: blood-brain barrier; CNS: central nervous system; DML: designed multiple ligand; Dmt: 2',6'-dimethyl-(S)-tyrosine; DOR: δ-opioid receptor; GPI: Guinea pig ileum; KOR: κ-opioid receptor; MOR: μ-opioid receptor; MPE: maximal possible effect; MVD: mouse vas deferens; NK1: neurokinin 1.
# DOR [2] = test: DOR binding, displacement of [^3H]DSLET from rat brain membranes; settings: SBCHM01 compared to AN81, Ki
# male C57Bl6 mice [3] = test: hot water tail-flick test, acute antinociception after i.v. administration; format: in vivo, mouse; settings: i.v.
# Description: (§1) Nociceptive responses to thermally-induced pain were assessed by the hot water tail-flick test using male C57Bl6 mice. Animals (weighing 25-28 g) were maintained on a normal light-dark cycle and testing occurred during the light cycle. Mice were injected intravenously (i.v.) with the examined drug, dissolved in saline, at different doses. For the verification of drug-induced antinociceptive tolerance, the investigated compounds were administered (i.v.) once per day for 5 days (2 and 4 mg/kg for SBCHM01 and 4 mg/kg for both AN81 and BVD03) and the analgesic effect was measured on the first and the fifth day of the experiment. In each case (both acute and chronic treatment) the effect was measured over a minimum time period of 120 minutes. The antinociceptive effect was measured in triplicate at the following time points post-injection: 5, 15, 30, 60, 120 min (and 180 min for SBCHM01; due to the strong and long-lasting analgesic effect produced by AN81 (Figure 2C), there was no possibility to prolong the experiment, which - if prolonged - could in consequence cause major damage to the animal's tail, thus giving spurious nociceptive responses). Responses to thermal hot stimulus were assessed by the latency with which the mouse removed its tail from 55°C water. A cut-off time of 10 s was used in order to prevent tissue damage.
# (§2) In order to compare the antinociceptive effect induced by the examined drugs, morphine was used as a standard reference.
# (§3) Data are presented as means ± standard errors of the mean (SEM). All of the calculations and statistical analysis were performed using Prism 5.0 (Graph Pad Software, San Diego, CA, USA). The nociceptive scores were analyzed using a two-way Anova with Bonferroni's post hoc test. The p value (the value of probability) as well as inferential statistics - F test, which include information about the obtained magnitude or value of the test statistic and degrees of freedom, are represented.
# male C57Bl6 mice [4] = test: hot water tail-flick test, tolerance after daily i.v. administration for 5 days; format: in vivo, mouse; settings: for tolerance development after repetitive administration: daily for 5 days, i.v. (morphine i.p.), measured on day 5
# Description: as §1, §2, §3
# NK1R = settings: calculated using the Schild's equation; cited from earlier work
# Excerpt: Table 1 In vitro functional activities and affinities of opioid- and opioid-NK1 ligands | column: NK1R pA2^a
# hNK1R = settings: [^3H]-SP, hNK1-CHO membranes; means ± SEM of three independent experiments; one site competition fitting; cited from earlier work
# Excerpt: Table 1 In vitro functional activities and affinities of opioid- and opioid-NK1 ligands | column: hNK1R Ki (nM)^b
# MOR [5] = test system: MOR; design: method as in PMID 21413804; settings: GPI tissue bioassay; means of 3-6 experiments ± SEM; cited from earlier work
# DOR [6] = test system: DOR; design: method as in PMID 21413804; settings: MVD tissue bioassay; means of 3-6 experiments ± SEM; cited from earlier work
# KOR = settings: cited from earlier work
# Excerpt: Table 1 In vitro functional activities and affinities of opioid- and opioid-NK1 ligands | column: KOR Ki (nM)^e, f
# MOR [7] = target: MOR; design: method as in PMID 21413804; settings: [^3H]DAMGO, rat brain membrane; cited from earlier work
# DOR [8] = target: DOR; design: method as in PMID 21413804; settings: [^3H]DSLET, rat brain membrane; cited from earlier work
# [9] = cited from earlier work
# Excerpt: The structure differs from BVD03 only in the amide nitrogen N-methyl group and side chain of the second residue in the peptide sequence (Figure 1). When an activity comparison is made between the two ...
# MOR [10] = test: forskolin-stimulated cAMP accumulation, MOR agonism; format: cell-based; settings: BVD03 in comparison to BVD02, EC50 cAMP
# MOR [11] = test: MOR binding, displacement of [^3H]diprenorphine in HEK293 cells; settings: BVD03 in comparison to BVD02, Ki
# DOR [12] = test: DOR binding, displacement of [^3H]diprenorphine in HEK293 cells; settings: BVD03 in comparison to BVD02, Ki
# MOR [13] = settings: forskolin-stimulated cAMP accumulation, agonist; cited from earlier work
# Excerpt: Table 1 In vitro functional activities and affinities of opioid- and opioid-NK1 ligands | column: MOR EC50 (nM)^c, d || The potent antinociceptive effects of the investigated structures after peripheral administration indicate that all four peptidic compounds are able to cross the BBB. […] The observed effects are in agreement with earlier in vitro binding data obtained for these peptides (BVD02 ...
# DOR [14] = settings: forskolin-stimulated cAMP accumulation, agonist; cited from earlier work
# Excerpt: Table 1 In vitro functional activities and affinities of opioid- and opioid-NK1 ligands | column: DOR EC50 (nM)^c, d || The potent antinociceptive effects of the investigated structures after peripheral administration indicate that all four peptidic compounds are able to cross the BBB. […] The observed effects are in agreement with earlier in vitro binding data obtained for these peptides (BVD02 ...
# MOR [15] = settings: [^3H]diprenorphine, HEK293 cells stably expressing MOR; cited from earlier work
# Excerpt: Table 1 In vitro functional activities and affinities of opioid- and opioid-NK1 ligands | column: MOR Ki (nM)^e, f || The potent antinociceptive effects of the investigated structures after peripheral administration indicate that all four peptidic compounds are able to cross the BBB. […] The observed effects are in agreement with earlier in vitro binding data obtained for these peptides (BVD02 ...
# DOR [16] = settings: [^3H]diprenorphine, HEK293 cells stably expressing DOR; cited from earlier work
# Excerpt: Table 1 In vitro functional activities and affinities of opioid- and opioid-NK1 ligands | column: DOR Ki (nM)^e, f || The potent antinociceptive effects of the investigated structures after peripheral administration indicate that all four peptidic compounds are able to cross the BBB. […] The observed effects are in agreement with earlier in vitro binding data obtained for these peptides (BVD02 ...
# [17] = test system: male, Sprague-Dawley rats; settings: TY005, rats; i.t. administration, paw withdrawal test; cited from earlier work
# Excerpt: Recently, Vanderah and coworkers reported the detailed in vivo evaluation of H-Tyr-D-Ala-Gly-Phe-Met-Pro-Leu-Trp-O-3',5'-Bn(CF3)2 (TY005) in several animal assays to define the role of this compound in thermal and tactile stimuli in uninjured, sham- and nerve-injured male, Sprague-Dawley rats. They observed that this compound was able to exert the desired dual activity in vivo. […] This is in contrast to the current study, where the hot water tail-flick assay served as a model for acute pain and in which the drug was injected intravenously. […] For a general clinical applicability, an important goal in pain research consists of the discovery and development of improved analgesic drugs which could be admi ...
# rodents = settings: administered centrally or peripherally in rodents; cited from earlier work
# Excerpt: From our previous results, we selected three opioid tetrapeptides with promising in vitro potency for further in vivo evaluation. […] We recently identified the opioid ligands H-Dmt-NMe-D ...
# MOR [18] = test system: MOR; design: method as in PMID 8981054, PMID 7712029; settings: cited from earlier work
# [19] = 4 mg/kg, 120 min, ± SEM, vs morphine: BVD03 p < 0.05, SBCHM01 p > 0.05
substance,measurement,setting,value
"H-Dmt-D-Arg-Aba-Gly-NMe-3',5'-Bn(CF3)2 [SBCHM01]",fold decrease in DOR potency vs AN81,DOR [1],103 fold
same,fold decrease in DOR binding vs AN81,DOR [2],17 fold
same,%MPE,"male C57Bl6 mice [3]; 2 mg/kg, 120 min, first day of treatment, ± SEM",85.12 ± 5.43%
same,%MPE,male C57Bl6 mice [3]; [19],80.47 ± 5.29%
same,antinociceptive activity relative to morphine,"male C57Bl6 mice [3]; 4 mg/kg, whole period of measurements, morphine i.p. same dose",slightly weaker during the whole period of measurements
same,synergistic or potentiating effect of combined pharmacophores,male C57Bl6 mice [3]; opioid and NK1 pharmacophores in a single entity,neither an synergistic nor potentiating antinociceptive effect appears
same,tolerance development after repetitive administration,male C57Bl6 mice [4],could not circumvent opioid induced tolerance; also recorded: mice had developed opioid-induced tolerance; also recorded: lower dose of SBCHM01 does not reduce the extent of tolerance development; also recorded: complete loss in antinociception on the fifth day of the experiment; also recorded: lost its antinociceptive potency completely upon chronic injection
same,%MPE,"male C57Bl6 mice [4]; day 1, i.v., 2 mg/kg, 3 h, ± SEM",71.13 ± 4.71%
same,potency at 180 min,"male C57Bl6 mice [4]; day 1, SBCHM01 2 mg/kg i.v., morphine 4 mg/kg i.p.",decrease in potency is clearly visible
same,antinociceptive activity on the fifth day,"male C57Bl6 mice [4]; day 5, i.v., 2 mg/kg daily, up to 3 h",Complete abolishment of SBCHM01's antinociceptive activity on the fifth day
same,%MPE,"male C57Bl6 mice [4]; day 5, i.v., 4 mg/kg daily, 30 min, ± SEM (AN81 7-10 animals, p < 0.001; SBCHM01 8-10 mice)",12.25 ± 7.33%
same,NK1R pA2,NK1R,7.8
same,Ki,hNK1R,0.0005 ± 0.0001 µM
same,EC50,MOR [5],0.00851 ± 0.00062 µM
same,EC50,DOR [6],0.0433 ± 0.0063 µM
same,Ki,"KOR; [^3H]U69,593, guinea pig brain membrane",0.445 ± 0.081 µM
same,Ki,MOR [7],0.000416 ± 1.2e-05 µM
same,Ki,DOR [8],0.0104 ± 0.0006 µM
H-Dmt-D-Arg-Phe-Lys-NH2 [Dmt^1-DALDA],opioid analgesic potency,[9],potent opioid analgesic
H-Dmt-NMe-D-Ala-Aba-Gly-NH2 [BVD03],factor of superior MOR potency vs BVD02,MOR [10],45
same,factor of superior MOR binding vs BVD02,MOR [11],4
same,fold increase in DOR affinity vs BVD02,DOR [12],26 fold
same,%MPE,"male C57Bl6 mice [3]; 0.25 mg/kg (similar at 4 and 0.5 mg/kg), 15 min",35-40%
same,%MPE,"male C57Bl6 mice [3]; 0.25 mg/kg, 2 h, maximum level, ± SEM of 6-10 mice",57.48 ± 17.57%
same,%MPE,"male C57Bl6 mice [3]; 0.5 mg/kg, 60 min, ± SEM of 6-10 mice, p > 0.05 vs morphine",88.41 ± 7.15%
same,%MPE,"male C57Bl6 mice [3]; 0.5 mg/kg, 120 min, ± SEM of 6-10 mice, p > 0.05 vs morphine",84.29 ± 6.46%
same,%MPE,"male C57Bl6 mice [3]; 1 mg/kg, 60 min, ± SEM of 6-10 mice, p > 0.05 vs morphine",89.21 ± 5.22%
same,%MPE,"male C57Bl6 mice [3]; 1 mg/kg, 120 min, ± SEM of 6-10 mice, p > 0.05 vs morphine",86.69 ± 5.52%
same,%MPE,"male C57Bl6 mice [3]; 4 mg/kg, 60 min, ± SEM of 6-10 mice, p > 0.05 vs morphine",68.78 ± 7.18%
same,%MPE,male C57Bl6 mice [3]; [19],50.06 ± 6.84%
same,antinociception after 2 hours,male C57Bl6 mice [3]; all doses except 0.25 mg/kg,drop in antinociception after 2 hours
same,tolerance development after repetitive administration,male C57Bl6 mice [4],leads to the development of tolerance
same,%MPE,"male C57Bl6 mice [4]; day 1, i.v., 4 mg/kg, 1 h, ± SEM of 7-10 animals",68.78 ± 7.18%
same,difference from morphine on first day,"male C57Bl6 mice [4]; day 1, i.v., 4 mg/kg, 7-10 animals",significant differences (**p < 0.01) when compared to morphine
same,%MPE,"male C57Bl6 mice [4]; day 5, i.v., 4 mg/kg daily, 60 min, ± SEM of 7-10 animals",18.14 ± 6.84%
same,EC50,MOR [13],1.74 ± 0.34 pM
same,EC50,DOR [14],0.016 ± 0.009 nM
same,Ki,MOR [15],0.015 ± 0.002 µM
same,Ki,DOR [16],0.005 ± 0.003 µM
same,Ki,"KOR; [^3H]diprenorphine, HEK293 cells stably expressing KOR",> 1000 µM
"H-Tyr-D-Ala-Gly-Phe-Met-Pro-Leu-Trp-O-3',5'-Bn(CF3)2 [TY005, hybrid opioid-NK1 octapeptide ligand]",antihyperalgesic tolerance,[17],development of antihyperalgesic tolerance could be suppressed; also recorded: inhibition of antihyperalgesic tolerance; also recorded: able to attenuate tolerance development
H-Tyr-D-Ala-Phe-Gly-Tyr-Pro-Ser-NH2 [dermorphin],tolerance development compared to morphine,rodents,induces less tolerance development when compared to morphine
same,affinity and selectivity for the MOR,MOR [18],high affinity and selectivity for the MOR
